# Assay results from publication PMC7828231, “Delphinidin Increases the Sensitivity of Ovarian Cancer Cell Lines to 3-bromopyruvate” (International Journal of Molecular Sciences, 2021).
# Tests used:
# LnCaP cells = system: LnCaP cells; design: method as in PMID 27462923; conditions: starting from a concentration of 50 µM; cited from earlier work
# PEO1 cells [1] = assay: GSH content (OPA); format: cell-based, human; conditions: 25-µM D, 20 µM 3-BP, 24 h
# Description: (§1) The content of reduced glutathione was assayed with OPA [63]. Briefly, the cells were seeded in wells of a transparent 96-well plate at a density of 7.5 × 10^3/well (MRC-5) or 1 × 10^4/well (cancer cells) and allowed to attach at 37 °C for 24 h. After 24-h treatment with the tested compounds, the medium was removed, the cells were washed with PBS (150 µL per well) and then added with 60 µL/well of cold redox quenching buffer (RQB) containing 20-mM HCl, 5% TCA, 5-mM DTPA and 10-mM L-ascorbic acid. The plate was shaken for 5 minutes and centrifuged for 5 minutes at 4000 rpm. Next, the supernatant was transferred into two 96-well black plates (“+NEM” and “–NEM”; 25 µL/well). Within the “+NEM” plate, 4 µL/well of freshly prepared 7.5-mM NEM in cold RQB buffer was added. Then, 1-M phosphate buffer (pH 7.0) was added into both plates (40 µL/well), and the plates were shaken for 5 min at 700 rpm. Finally, 160 µL/well of cold 0.1-M phosphate buffer (pH 6.8) and 25 µL/well of freshly prepared 0.5% OPA in methanol were added into both plates. Both plates were incubated for 30 minutes at room temperature with constant shaking. Fluorescence was then measured at 355/430 nm. The protein contents in the cell lysates were determined according to Lowry et al.. The concentration of reduced glutathione was determined by subtracting […] and calculated with respect to the protein content.
# SKOV3 cells [2] = assay: GSH content (OPA); format: cell-based, human; conditions: 25-µM D, 40 µM 3-BP, 24 h
# Description: as §1
# MRC-5 fibroblasts [3] = assay: GSH content (OPA); format: cell-based, human; conditions: 25-µM D, 40 µM 3-BP, 24 h
# Description: as §1
# AGS cells = system: AGS cells; design: method as in PMID 15680311; conditions: 50–200 µM; cited from earlier work
# SKOV3 cells [4] = assay: Apoptosis and necrosis assay (RealTime-Glo Annexin V); format: cell-based, human; conditions: after 24 h
# Description: The levels of apoptosis and necrosis were assayed using the RealTime-Glo™ Annexin V Apoptosis and Necrosis Assay. Cells were seeded into a white 96-well plate with optical bottom, cultured and treated adequately, as stated above. After 24 h, 100 μL of the freshly prepared reagent was added to each well according to the manufacturer’s protocols. The fluorescence and luminescence were measured according to the protocols.
# PEO1 cells [5] = assay: Level of reactive oxygen species (DHE, DCFDA); format: cell-based, human; conditions: 25-µM D, 20 µM 3-BP, 24 h
# Description: (§2) The level of ROS in the MRC-5, SKOV3 and PEO1 cells after 24-h exposure to delphinidin chloride and 3-BP was assayed with 2′,7′-dichlorofluorescein diacetate (DCFDA) and dihydroethidium (DHE). Briefly, cells were seeded in a black 96-well flat clear-bottom plate at a density of 7.5 × 10^3/well for MRC-5 fibroblasts and 1 × 10^4 /well for cancer cells and allowed to attach at 37 °C for 24 h. After 24-h incubation, the medium was removed and replaced with a medium containing the examined substances at concentrations given previously. After incubation, the medium was removed and replaced by a 10-µM fluorescent probe (DHE or DCFDA) (100 µL/well). Stock solutions of the probes were prepared in DMSO, and working solutions were prepared in PBS. Fluorescence was measured at 490/529 nm (DCFDA) and 475/579 nm (DHE) for 2 h at 37 °C in 1-min intervals.
# SKOV3 cells [6] = assay: Level of reactive oxygen species (DHE, DCFDA); format: cell-based, human; conditions: 25-µM D, 40 µM 3-BP, 24 h
# Description: as §2
# MRC-5 fibroblasts [7] = assay: Level of reactive oxygen species (DHE, DCFDA); format: cell-based, human; conditions: 25-µM D, 40 µM 3-BP, 24 h
# Description: as §2
# PEO1 cells [8] = assay: ATP level (CellTiter-Glo); format: cell-based, human; conditions: 25-µM D, 20 µM 3-BP, 24 h
# Description: (§3) To determine the ATP level in the cells, the CellTiter-Glo® Luminescent Cell Viability Assay (Promega) was used. This method is based on the ATP-dependent conversion of luciferin to the luminescent oxyluciferin. Briefly, cells were seeded in a white/clear bottom 96-well plate with a density of 1 × 10^4/well (SKOV3 and PEO1) or 7.5 × 10^3/well (MRC-5). After 24-h incubation, the cells were treated with 25-µM D, a IC50 concentration of 3-BP (SKOV3 and MRC-5: 40 µM and PEO1: 20 µM) and both compounds simultaneously. The ATP level was determined after 24-h exposure to the tested compounds. The plate was equilibrated at room temperature for approximately 25 minutes. Next, 100 µL of the CellTiter-Glo® Reagent was added to each well, and the plate was shaken for 2 minutes. Then, the plate was left at room temperature for 10 minutes, and the luminescence was measured in a Spark multimode microplate reader (Tecan Group LTD., Männedorf, Switzerland).
# SKOV3 cells [9] = assay: ATP level (CellTiter-Glo); format: cell-based, human; conditions: 25-µM D, 40 µM 3-BP, 24 h
# Description: as §3
# MRC-5 fibroblasts [10] = assay: ATP level (CellTiter-Glo); format: cell-based, human; conditions: 25-µM D, 40 µM 3-BP, 24 h
# Description: as §3
# 22Rν1 cells = system: 22Rν1 cells; design: method as in PMID 18948740; conditions: cited from earlier work
# [11] = design: method as in PMID 17729219; conditions: DMEM medium, after 30 min; cited from earlier work
# PEO1 cells [12] = assay: Mitochondrial membrane potential (JC-1); format: cell-based, human; conditions: 25-µM D, 20 µM 3-BP, 24 h
# Description: (§4) Changes of mitochondrial membrane potential was evaluated using 5,5′,6,6′-tetrachloro-1,1′,3,3′-tetraethyl-imidacarbocyanine iodide, 5,5′,6,6′-tetrachloro-1,1′,3,3′-tetraethylbenzimidazolocarbocyanine iodide (JC-1) with a Mitochondrial Membrane Potential Assay Kit.
# (§5) The cells were seeded into black plates and treated as mentioned before. After 24h incubation with the studied compounds, the medium was discharged and replaced with 100x diluted JC-1 reagent in complete culture medium and incubated for 30 min in a CO2 incubator. Next, the plate was centrifuged at 4000 rpm for 5 min and afterwards the reagent was aspirated, and cells were washed with 150 μL/well Cell-Based Assay Buffer and centrifuged once more. After removing the supernatant, 100 μL/well of the new buffer was added. Fluorescence was measured at 540/570 nm (red fluorescence) and 485/535 nm (green fluorescence). The results were presented as a ratio of green to red fluorescence intensity ratio.
# SKOV3 cells [13] = assay: Mitochondrial membrane potential (JC-1); format: cell-based, human; conditions: 25-µM D, 40 µM 3-BP, 24 h
# Description: as §4, §5
# [14] = system: LoVo cell subline resistant to adriamycin; design: method as in PMID 20494645; conditions: cited from earlier work
Compound,viability (LnCaP cells),GSH level (PEO1 cells [1]),GSH level (SKOV3 cells [2]),GSH level (MRC-5 fibroblasts [3]),viability (AGS cells),induction of apoptosis (SKOV3 cells [4]),level of DCFDA-reactive ROS (PEO1 cells [5]),level of DHE-detectable ROS (PEO1 cells [5]),level of DCFDA-reactive ROS (SKOV3 cells [6]),level of DCFDA-reactive ROS (MRC-5 fibroblasts [7]),level of DHE-detectable ROS (MRC-5 fibroblasts [7]),ATP content (PEO1 cells [8]),ATP content (SKOV3 cells [9]),ATP content (MRC-5 fibroblasts [10]),IC50 (22Rν1 cells) [µM],stability in cell culture medium [11],mitochondrial potential (JC-1 fluorescence ratio) (PEO1 cells [12]),mitochondrial potential (JC-1 fluorescence ratio) (SKOV3 cells [13]),IC50 [14] [µM],level of DHE-detectable ROS (SKOV3 cells [6])
"Oc1cc(O)c2cc(O)c(-c3cc(O)c(O)c(O)c3)[o+]c2c1 [Delphinidin chloride, 3,3′,4′,5,5′,7-hexahydroxyflavylium]",concentration-dependently decreased the viability,did not affect,without effect,neither 3-BP or D alone modified,did not affect significantly the viability,induced apoptosis,increased,increased,not affected,not affected,decreased,did not change,neither 3-BP nor D affected,not affected,90,not detectable,decreased,increased,16 ± 2,–
"O=C(O)C(=O)CBr [3-BP, 3-bromopyruvic acid]",–,decreased,increased,neither 3-BP or D alone modified,–,–,increased,decreased,not affected,not affected,decreased,decrease,neither 3-BP nor D affected,not affected,–,–,decreased,increased,–,not affecting
